Test results published in patent publication US9440941B2, “Substituted chroman-6-yloxy-cycloalkanes and their use as pharmaceuticals” (SANOFI, priority 2013, dated 2016).

Target: T1, human NCX1 (Homo sapiens, UniProt P32418)
T1 construct: expressed in transfected cells
Experiment: Inhibition of Ca2+ influx into cells (NCX1 reverse mode), FLIPR Fluo-4 assay
Type: cell-based
Settings: inhibition of NCX1 in reverse mode (Ca2+ influx into cells); read-out: NCX1rv IC50
How it was run: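 CHO cells stably expressing human NCX1, loaded with Fluo-4 AM, preincubated with compound 45 min at 16 °C in pH 7.4 buffer (3.5 mM CaCl2). Reverse mode triggered by 20 µM gramicidin (final); Fluo-4 fluorescence read at 520 nm every 2 s. IC50 from percentage inhibition of max-minus-min fluorescence.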

Structure (SMILES)	IC50
c1ccc(C2CCc3cc(O[C@H]4CC[C@H](N(Cc5ccoc5)Cc5ccoc5)CC4)ccc3O2)cc1 (stereo partly drawn) [compound 85, N,N-Bis(furan-3-ylmethyl)-[trans-4-(2-phenylchroman-6-yloxy)]-cyclohexylamine]	800 nM
Cc1nc(CN(Cc2csc(C)n2)[C@H]2CC[C@H](Oc3ccc4c(c3)CCC(c3ccccc3)O4)CC2)cs1 (stereo partly drawn) [compound 86, N,N-Bis(2-methylthiazol-4-ylmethyl)-[trans-4-(2-phenylchroman-6-yloxy)]-cyclohexylamine]	800 nM
Cc1cc(CN(Cc2cc(C)n(C)n2)[C@H]2CC[C@H](Oc3ccc4c(c3)CCC(c3ccccc3)O4)CC2)nn1C (stereo partly drawn) [compound 87, N,N-Bis(1,5-dimethylpyrazol-3-ylmethyl)-[trans-4-(2-phenylchroman-6-yloxy)]-cyclohexylamine]	1300 nM
CCC(C)CN(CC(C)CC)[C@H]1CC[C@H](Oc2ccc3c(c2)CCC(c2ccccc2)O3)CC1 (stereo partly drawn) [compound 88, N,N-Bis(2-methylbutyl)-[trans-4-(2-phenylchroman-6-yloxy)]-cyclohexylamine]	2500 nM
O=C(OC1CCC(Oc2ccc3c(c2)CCC(c2ccccc2)O3)CC1)c1ccncc1F (stereo not drawn) [compound 89, 3-Fluoro-isonicotinic acid 4-(2-phenyl-chroman-6-yloxy)-cyclohexyl ester]	400 nM
CCCC1(O)CCC(Oc2ccc3c(c2)CCC(c2ccccc2)O3)CC1 (stereo not drawn) [compound 90, 4-(2-Phenylchroman-6-yloxy)-1-propyl-cyclohexanol]	200 nM
Cc1nc(CNC2CCC(Oc3ccc4c(c3)CCC(c3ccccc3)O4)CC2)no1 (stereo not drawn) [compound 97]	500 nM
CC(C)CCNC1CCC(Oc2ccc3c(c2)CCC(c2ccccc2)O3)CC1 (stereo not drawn) [compound 98]	600 nM
O=C(NCCO)C1CCC(Oc2ccc3c(c2)CC[C@H](c2ccccc2)O3)CC1 (stereo partly drawn) [compound 99]	300 nM
CCC(C)CN(CCO)C1CCC(Oc2ccc3c(c2)CCC(c2ccccc2)O3)CC1 (stereo not drawn) [compound 100]	1400 nM
CCC(C)CNC1CCC(Oc2ccc3c(c2)CCC(c2ccccc2)O3)CC1 (stereo not drawn) [compound 101]	900 nM
O=C(NCCO)C1CCC(Oc2ccc3c(c2)CC[C@@H](c2ccccc2)O3)CC1 (stereo partly drawn) [compound 102, N-(2-Hydroxyethyl)-4-((S)-2-phenylchroman-6-yloxy)-cyclohexanecarboxamide]	1100 nM
c1ccc(C2CCc3cc(OC4CCC(NCc5ccoc5)CC4)ccc3O2)cc1 (stereo not drawn) [compound 103]	800 nM
Cc1nn(C)c(C)c1CNC1CCC(Oc2ccc3c(c2)CCC(c2ccccc2)O3)CC1 (stereo not drawn) [compound 104]	800 nM
c1ccc(C2CCc3cc(OC4CCC(NC5CCCCC5)CC4)ccc3O2)cc1 (stereo not drawn) [compound 105]	1100 nM
CCCC(C)NC1CCC(Oc2ccc3c(c2)CCC(c2ccccc2)O3)CC1 (stereo not drawn) [compound 106]	800 nM
CC(C)CCCNC1CCC(Oc2ccc3c(c2)CCC(c2ccccc2)O3)CC1 (stereo not drawn) [compound 107]	800 nM
CCCCNC1CCC(Oc2ccc3c(c2)CCC(c2ccccc2)O3)CC1 (stereo not drawn) [compound 108]	600 nM
CC(C)C(C)NC1CCC(Oc2ccc3c(c2)CCC(c2ccccc2)O3)CC1 (stereo not drawn) [compound 109]	1000 nM
COCC(C)NC1CCC(Oc2ccc3c(c2)CCC(c2ccccc2)O3)CC1 (stereo not drawn) [compound 110]	1300 nM
CSCCNC1CCC(Oc2ccc3c(c2)CCC(c2ccccc2)O3)CC1 (stereo not drawn) [compound 111]	600 nM
CCOCCCNC1CCC(Oc2ccc3c(c2)CCC(c2ccccc2)O3)CC1 (stereo not drawn) [compound 112]	900 nM
CCCNC1CCC(Oc2ccc3c(c2)CCC(c2ccccc2)O3)CC1 (stereo not drawn) [compound 113]	500 nM
CCC(C)CCNC1CCC(Oc2ccc3c(c2)CCC(c2ccccc2)O3)CC1 (stereo not drawn) [compound 114]	700 nM
COCC(C)(C)CNC1CCC(Oc2ccc3c(c2)CCC(c2ccccc2)O3)CC1 (stereo not drawn) [compound 115]	1000 nM
c1ccc(C2CCc3cc(OC4CCC(NCCCC5CCOC5)CC4)ccc3O2)cc1 (stereo not drawn) [compound 116]	600 nM
c1ccc(C2CCc3cc(OC4CCC(NCCSC5CCCCC5)CC4)ccc3O2)cc1 (stereo not drawn) [compound 117]	3700 nM
